Laboratory results published in US11065238B2, “Inhibitors of gangliosides metabolism for the treatment of motor neuron diseases” (ICM (INSTITUT DU CERVEAU ET DE LA MOELLE ÉPINIÈRE), priority 2016, dated 2021).
“Also recorded” adds a separate entry of the source.

What was measured:
cultured neurons = details: glutamate treatment; cited from earlier work
p62 = experiment: Western blot analysis of p62 levels in cortical neurons; assay type: cell-based, mouse
[1] = test system: GM2 and GM3 gangliosides in primary cultures of cortical neurons; experiment: Fluorescence intensity of GM2 / GM3 immunostaining in primary cultures of cortical neurons; assay type: cell-based, mouse; details: for increase in overall GM2 levels: glutamate treatment
Description: Mouse primary cultures of cortical neurons were treated with Miglustat (Tocris) from the second day in culture. Medium was changed every three days. Immunostaining were performed after six days of culture in vitro, as previously described (Murmu et al., 2011). To downregulate GM3 synthase expression, vectors expressing miRNA were produced using the Block-it kit (Life Technologies). The miRNA sequences were: […] TGTACAT (miRNA GM3S-1) (SEQ ID NO: 3), […] (miRNA GM3S-2) (SEQ ID NO: 4), […] CTGTAGA (miRNA Neu1-1) (SEQ ID NO: 5) and […] ATCGTAG (miRNA Neu1-2) (SEQ ID NO: 6). Neurons were transfected with vectors expressing the miRNA and GFP using the Neon transfection system (Life Technologies). The efficiency of the miRNA sequences was validated by transfecting NIH-3T3 cells and performing quantitative RT-PCR using a LightCycler 480 apparatus (Roche) following the manufacturer's instructions. […] Quantification of gangliosides levels was performed either with an automated ArrayScan XTI apparatus (Thermo-Fisher) using the General Intensity Measurement protocol, or with ImageJ on image acquired on a Nikon Eclipse Ti-U microscope. […] Colocalization of ganglioside staining with lysosomes was quantified using ImageJ. A mask was made from the Lamp1 staining channel and the corresponding ganglioside fluorescence was quantified as the percentage of total ganglioside fluorescence in every cell. […] To quantify neuronal death, 30 hours after glutamate treatment all neurons were labeled with 100 nM Cell tracker Deep Red (Life Technologies) and dead cells were labeled by propidium iodide (5 μM). […] The number of Tuj-1-positive cells per well was quantified with an automated ArrayScan XTI apparatus (Thermo-Fisher) using the compartmental analysis protocol. Neuronal death was quantified by comparing glutamate-treated and non-treated neurons.

[2] = test system: zebrafish zspg11 morphants; experiment: Zebrafish zspg11 model: phenotype of morphants 48 hours post fertilization; assay type: in vivo; details: 48 hpf; for motor phenotype of morphants: injection of 1.2 pmol morpholino vs mismatch or non-injected
Description: (§1) Modeling of Spg11 pathology in zebrafish was performed as described previously (Martin, 2012). The knock-down of zspg11 was performed using a morpholino targeting a splice donor site, zspg11spl (5′-[…]-3′—SEQ ID NO: 88). The control morpholino mmzspg11spl (5′-ACgAATgATAGCcTCTCGTAgCgTC-3′—SEQ ID NO: 89) containing five mismatch nucleotides was used to distinguish specific phenotypic effects resulting from the knock-down of zspg11 from non-specific effects due to injection or morpholino toxicity. One nl of 1.2 mM solution of zspg11spl or mmzspg11spl were injected into the yolk of one- to two-cell stage embryos. After injection, embryos were maintained at 28° C. in E3 medium, containing miglustat (Tocris Bioscience) at 100 or 300 uM or DMSO for control groups. At 24 hpf they were manually dechorionated using fine forceps. […] To quantify motor activity, we monitored the touch-evoked escape response at 48 hours post-fertilization in fishes with no obvious developmental abnormalities as previously described (Martin, 2012). Images were acquired at 500 images per sec. Tracking of the touch evoked escape response was performed using the Image J manual tracking plugin. Assessment of GM2 ganglioside levels was performed by whole-mount in vivo immunohistochemistry using 48 hpf embryos fixed in 4% paraformaldehyde in PBS for 2 h at room temperature. Embryos were washed 3 times (5 min each) in PBS-0.1% Triton X-100 (PBST). Embryos were blocked for 1 h in 5% normal goat serum in PBS containing 1% DMSO and 1% Triton X-100 (PBDT), then incubated overnight at 4° C. in blocking solution containing the GM2 primary antibody. […] Larvae were oriented in the same position for image capture to minimize potential biases in quantification. […] Using ImageJ software, the maximum intensity projections of z-stacks were used for quantification of fluorescence in the telencephalon. Mean and variance of the fluorescence intensity were quantified for each morphant in a square of 100 pixels per 100 pixels.

[3] = test system: primary cultures of Spg11+/+ and Spg11−/− cortical neurons; experiment: Neuronal death triggered by glutamate in primary cultures of cortical neurons; assay type: cell-based, mouse; details: glutamate 200 μM, 30 hours
Description: (§2) Mouse primary cultures of cortical neurons were treated with Miglustat (Tocris) from the second day in culture. Medium was changed every three days. Immunostaining were performed after six days of culture in vitro, as previously described (Murmu et al., 2011). To downregulate GM3 synthase expression, vectors expressing miRNA were produced using the Block-it kit (Life Technologies). The miRNA sequences were: […] TGTACAT (miRNA GM3S-1) (SEQ ID NO: 3), […] (miRNA GM3S-2) (SEQ ID NO: 4), […] CTGTAGA (miRNA Neu1-1) (SEQ ID NO: 5) and […] ATCGTAG (miRNA Neu1-2) (SEQ ID NO: 6). Neurons were transfected with vectors expressing the miRNA and GFP using the Neon transfection system (Life Technologies). The efficiency of the miRNA sequences was validated by transfecting NIH-3T3 cells and performing quantitative RT-PCR using a LightCycler 480 apparatus (Roche) following the manufacturer's instructions. […] Quantification of gangliosides levels was performed either with an automated ArrayScan XTI apparatus (Thermo-Fisher) using the General Intensity Measurement protocol, or with ImageJ on image acquired on a Nikon Eclipse Ti-U microscope. […] Colocalization of ganglioside staining with lysosomes was quantified using ImageJ. A mask was made from the Lamp1 staining channel and the corresponding ganglioside fluorescence was quantified as the percentage of total ganglioside fluorescence in every cell. […]

[4] = test system: zebrafish zspg11 morphants; experiment: Zebrafish zspg11 model: touch-evoked escape response; assay type: in vivo; details: for distance travelled following a touch-evoked escape response: treated with miglustat; for swimming / touch-induced escape: injection of 1.2 pmol morpholino vs mismatch morpholino
Description: Modeling of Spg11 pathology in zebrafish was performed as described previously (Martin, 2012). The knock-down of zspg11 was performed using a morpholino targeting a splice donor site, zspg11spl (5′-[…]-3′—SEQ ID NO: 88). The control morpholino mmzspg11spl (5′-ACgAATgATAGCcTCTCGTAgCgTC-3′—SEQ ID NO: 89) containing five mismatch nucleotides was used to distinguish specific phenotypic effects resulting from the knock-down of zspg11 from non-specific effects due to injection or morpholino toxicity. One nl of 1.2 mM solution of zspg11spl or mmzspg11spl were injected into the yolk of one- to two-cell stage embryos. After injection, embryos were maintained at 28° C. in E3 medium, containing miglustat (Tocris Bioscience) at 100 or 300 uM or DMSO for control groups. At 24 hpf they were manually dechorionated using fine forceps. […] To quantify motor activity, we monitored the touch-evoked escape response at 48 hours post-fertilization in fishes with no obvious developmental abnormalities as previously described (Martin, 2012). Images were acquired at 500 images per sec. Tracking of the touch evoked escape response was performed using the Image J manual tracking plugin. Assessment of GM2 ganglioside levels was performed by whole-mount in vivo immunohistochemistry using 48 hpf embryos fixed in 4% paraformaldehyde in PBS for 2 h at room temperature. Embryos were washed 3 times (5 min each) in PBS-0.1% Triton X-100 (PBST). Embryos were blocked for 1 h in 5% normal goat serum in PBS containing 1% DMSO and 1% Triton X-100 (PBDT), then incubated overnight at 4° C. in blocking solution containing the GM2 primary antibody. After 4 washes in PBST at room temperature, embryos were incubated with an anti IgM antibody coupled to Alexa-488 (Thermo Fishser), overnight at room temperature in PBDT. Before observation, embryos were washed 3 times in PSBT and mounted in a drop of Fluoromount™ Aqueous Mounting Medium (Sigma Aldrich). Whole-mount embryos were imaged on a confocal microscope (Leica SP8, 40X, NA 0.8). Larvae were oriented in the same position for image capture to minimize potential biases in quantification. Image stacks were collected with a step-size of 0.35 μm. Using ImageJ software, the maximum intensity projections of z-stacks were used for quantification of fluorescence in the telencephalon. Mean and variance of the fluorescence intensity were quantified for each morphant in a square of 100 pixels per 100 pixels.

[5] = test system: GM2 in the telencephalon of zebrafish morphants; experiment: Zebrafish zspg11 model: GM2 immunostaining in the telencephalon; assay type: in vivo; details: for GM2 immunostaining in the telencephalon: injection of 1.2 pmol morpholino vs mismatch morpholino
Description: as §1

[6] = test system: autolysosomes in Spg11+/+ and Spg11−/− neurons; experiment: Proportion of Lamp1-stained lysosomes also positive for p62 (autolysosomes) in cultured cortical neurons; assay type: cell-based, mouse; details: miglustat 100 μM, six days in vitro
Description: as §2

[7] = test system: mouse model of Tay Sachs disease; details: cited from earlier work

Compound: N[C@@H](CCC(=O)O)C(=O)O [Glutamate, glutamate]
- ganglioside levels (cultured neurons): increase ganglioside levels
- p62 levels (p62; Spg11−/− neurons treated with glutamate (200 μM) for 24 hours): significantly increased
- p62 levels (p62; control neurons treated with glutamate (200 μM) for 24 hours): no difference
- increase in overall GM2 levels ([1]; Spg11−/− neurons, p=0.007, n>10): 15.7±3.9%
- increase in overall GM2 levels ([1]; control neurons, p=0.02, n>9): 20.0±4.6%

Compound: CCCCN1C[C@H](O)[C@@H](O)[C@H](O)[C@H]1CO [Miglustat, N-butyldeoxynojirimycin]
- proportion of paralyzed larvae ([2]; larvae injected with zspg11spl morpholino, miglustat 100 or 300 uM in medium): decreased the proportion of paralyzed morphants; also recorded: significantly reduced in a dose-dependent manner
- neuronal death induced by glutamate [3]: prevented neuronal death induced by glutamate; also recorded: decreased the neuronal death induced by glutamate in a dose-dependent manner
- distance travelled following a touch-evoked escape response ([4]; morphants injected with mismatch morpholino): no effect
- distance travelled following a touch-evoked escape response ([4]; morphants injected with zspg11spl morpholino, 48 hpf): corrected when treated by miglustat; also recorded: significantly corrected
- GM2 immunostaining intensity (mean and variance) in the telencephalon ([5]; morphants injected with zspg11spl morpholino, treated with miglustat, 48 hpf): corrected when morphants were treated with miglustat; also recorded: corrected in larvae treated by miglustat
- proportion of lysosomes positive for the p62 marker [6]: strongly decreased
- glutamate-induced increase of p62 levels (p62; Spg11−/− neurons, miglustat 100 μM, glutamate 200 μM for 24 hours, p62 normalized to tubulin): inhibited
- levels of GM2 (fluorescence intensity of GM2 immunostaining) ([1]; control and Spg11−/− cortical neurons, six days in vitro): significantly decreased the levels of GM2 in a dose-dependent manner
- brain levels of GM2 [7]: decrease brain levels of GM2

Compound: zspg11spl: morpholino targeting a splice donor site for knock-down of zspg11, 5′-ACCAATCATAGCGTCTCGTACCCTC-3′ (all phosphorodiamidate morpholino (PMO))
- motor phenotype of morphants [2]: large proportion of paralyzed or slowly swimming phenotypes
- motor phenotype of morphants ([2]; listed as zspg11 morpholinos): either a loss of motility or a paralysis
- swimming / touch-induced escape [4]: impaired the swimming
- swimming / touch-induced escape ([4]; listed as zspg11 morpholinos): significantly shorter touch-induced escapes
- GM2 immunostaining in the telencephalon [5]: increased the mean and variance of GM2 immunostaining intensity
- GM2 immunostaining in the telencephalon ([5]; listed as zspg11 morpholinos): stronger GM2 staining
